Experimental data reported in patent US12077503B2, “Substituted cyclic amides and their use as herbicides” (FMC CORPORATION, priority 2015, dated 2024).

Experiments:
Format in all cases: in vivo
Kochia (Kochia scoparia) [1] = experiment: Test A preemergence
Summary of the method: (§1)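 Greenhouse, ~10 d after spray; visual injury vs untreated controls, 0 = no effect, 100 = complete control. Preemergence: directed soil spray over planted seeds. Postemergence: plants 2–10 cm, 1–2 leaf stage. Loam/sand blend. Compound in non-phytotoxic solvent with surfactant.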

[2] = tested on: barnyardgrass (Echinochloa crus-galli); experiment: Test A preemergence
Summary of the method: as §1

[3] = tested on: giant foxtail (Setaria faberii); experiment: Test A preemergence
Summary of the method: as §1

[4] = tested on: pigweed (Amaranthus retroflexus); experiment: Test A preemergence
[5] = tested on: ragweed (common ragweed, Ambrosia elatior); experiment: Test A preemergence
Summary of the method: as §1

[6] = tested on: ryegrass, Italian (Italian ryegrass, Lolium multiflorum); experiment: Test A preemergence
Summary of the method: as §1

[7] = tested on: Galium (catchweed bedstraw, Galium aparine); experiment: Test A postemergence; settings: postemergence, 0 to 100 scale (0 no effect, 100 complete control)
Summary of the method: as §1

Kochia (Kochia scoparia) [8] = experiment: Test A postemergence; settings: postemergence, 0 to 100 scale (0 no effect, 100 complete control)
Summary of the method: as §1

[9] = tested on: barnyardgrass (Echinochloa crus-galli); experiment: Test A postemergence; settings: postemergence, 0 to 100 scale (0 no effect, 100 complete control)
Summary of the method: as §1

[10] = tested on: blackgrass (Alopecurus myosuroides); experiment: Test A postemergence; settings: postemergence, 0 to 100 scale (0 no effect, 100 complete control)
Summary of the method: as §1

corn (Zea mays) = experiment: Test A postemergence; settings: postemergence, 0 to 100 scale (0 no effect, 100 complete control)
Summary of the method: as §1

[11] = tested on: giant foxtail (Setaria faberii); experiment: Test A postemergence; settings: postemergence, 0 to 100 scale (0 no effect, 100 complete control)
Summary of the method: as §1

[12] = tested on: pigweed (Amaranthus retroflexus); experiment: Test A postemergence; settings: postemergence, 0 to 100 scale (0 no effect, 100 complete control)
Summary of the method: as §1

[13] = tested on: ragweed (common ragweed, Ambrosia elatior); experiment: Test A postemergence; settings: postemergence, 0 to 100 scale (0 no effect, 100 complete control)
Summary of the method: as §1

[14] = tested on: ryegrass, Italian (Italian ryegrass, Lolium multiflorum); experiment: Test A postemergence; settings: postemergence, 0 to 100 scale (0 no effect, 100 complete control)
Summary of the method: as §1

[15] = tested on: wheat (Triticum aestivum); experiment: Test A postemergence; settings: postemergence, 0 to 100 scale (0 no effect, 100 complete control)
Summary of the method: as §1

[16] = tested on: barnyardgrass (Echinochloa crus-galli); experiment: Test B flooded paddy test; settings: Flood, 250 g ai/ha; 0 to 100 scale where 0 is no effect and 100 is complete control; 13 to 15 d
Summary of the method: (§2)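 Evaluation by eye, against controls, occurred 13–15 d post-treatment in a greenhouse, using a 0 (no effect) to 100 (complete control) scale. Application was into the paddy water, 3 cm deep over the soil, on 2-leaf plants.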

[17] = tested on: ducksalad (Heteranthera limosa); experiment: Test B flooded paddy test; settings: Flood, 250 g ai/ha; 0 to 100 scale where 0 is no effect and 100 is complete control; 13 to 15 d
Summary of the method: as §2

rice (Oryra sativa) = experiment: Test B flooded paddy test; settings: Flood, 250 g ai/ha; 0 to 100 scale where 0 is no effect and 100 is complete control; 13 to 15 d
Summary of the method: as §2

[18] = tested on: sedge, umbrella (small-flower umbrella sedge, Cyperus difformis); experiment: Test B flooded paddy test; settings: Flood, 250 g ai/ha; for Plant response rating, Sedge, Umbrella: 0 to 100 scale where 0 is no effect and 100 is complete control, 13 to 15 d
Summary of the method: as §2

[19] = tested on: nutsedge, yellow (yellow nutsedge, Cyperus esculentus); experiment: Test C preemergence; settings: for Plant response rating (scale of 0 to 100), Nutsedge, Yellow: 0 is no effect, 100 is complete control; for Plant response rating, Nutsedge, Yellow: scale 0 to 100, 0 no effect, 100 complete control
Summary of the method: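 Herbicidal effect, applied preemergence to sown seeds or postemergence to 1- to 4-leaf plants, was scored visually 13 to 15 d after application, 0 to 100 versus controls.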

[20] = 125 g ai/ha, Preemergence, visual injury after approximately 10 d, 0 to 100 scale where 0 is no effect and 100 is complete control
[21] = 500 g ai/ha, preemergence, 0 to 100 scale, 0 = no effect, 100 = complete control
[22] = 125 g ai/ha, visual rating after approx. 10 d
[23] = 500 g ai/ha, visual injury, approx. 10 d
[24] = 125 g ai/ha, preemergence, visual rating after approx. 10 d, 0 to 100 scale where 0 is no effect and 100 is complete control
[25] = 125 g ai/ha, visual injury after approximately 10 d

Compound: CN1CC(c2ccc(F)c(F)c2)C(C(=O)Nc2ccccc2C(F)(F)F)C1=O (stereo not drawn) [Compound 641]
- Plant response rating, Kochia (Kochia (Kochia scoparia) [1]; [20]): 20
- Plant response rating, Kochia (Kochia (Kochia scoparia) [1]; [21]): 50
- Plant response rating, Barnyardgrass [2, 20]: 90
- Plant response rating, Barnyardgrass [2, 21]: 0
- Plant response rating, Foxtail, Giant [3, 20]: 90
- Plant response rating, Foxtail, Giant [3, 21]: 100
- Plant response rating, Pigweed [4, 20]: 20
- Plant response rating, Pigweed [4, 21]: 50
- Plant response rating, Ragweed [5, 20]: 0
- Plant response rating, Ragweed [5, 21]: 60
- Plant response rating, Ryegrass, Italian [6, 20]: 20
- Plant response rating, Ryegrass, Italian [6, 21]: 60
- Plant response rating, Galium [7, 22]: 40
- Plant response rating, Galium [7, 23]: 50
- Plant response rating, Kochia (Kochia (Kochia scoparia) [8]; [22]): 0
- Plant response rating, Kochia (Kochia (Kochia scoparia) [8]; [23]): 20
- Plant response rating, Barnyardgrass [9, 22]: 90
- Plant response rating, Barnyardgrass [9, 23]: 90
- Plant response rating, Blackgrass [10, 22]: 30
- Plant response rating, Blackgrass [10, 23]: 60
- Plant response rating, Corn (corn (Zea mays); [22]): 0
- Plant response rating, Corn (corn (Zea mays); [23]): 50
- Plant response rating, Foxtail, Giant [11, 22]: 90
- Plant response rating, Foxtail, Giant [11, 23]: 90
- Plant response rating, Pigweed [12, 22]: 0
- Plant response rating, Pigweed [12, 23]: 20
- Plant response rating, Ragweed [13, 22]: 0
- Plant response rating, Ragweed [13, 23]: 20
- Plant response rating, Ryegrass, Italian [14, 22]: 0
- Plant response rating, Ryegrass, Italian [14, 23]: 40
- Plant response rating, Wheat [15, 22]: 0
- Plant response rating, Wheat [15, 23]: 30
- Plant response rating, Barnyardgrass [16]: 70
- Plant response rating, Ducksalad [17]: 100
- Plant response rating, Rice (rice (Oryra sativa)): 0
- Plant response rating, Sedge, Umbrella [18]: 0
- Plant response rating (scale of 0 to 100), Nutsedge, Yellow ([19]; 31 g ai/ha): 0
- Plant response rating, Nutsedge, Yellow ([19]; 62 g ai/ha): 0
- Plant response rating, Nutsedge, Yellow ([19]; 125 g ai/ha): 0
- Plant response rating, Nutsedge, Yellow ([19]; 250 g ai/ha): 0

Compound: CN1CC(c2cc(F)cc(F)c2)C(C(=O)Nc2ccc(F)c(F)c2F)C1=O (stereo not drawn) [Compound 646]
- Plant response rating, Kochia (Kochia (Kochia scoparia) [1]; [20]): 60
- Plant response rating, Kochia (Kochia (Kochia scoparia) [1]; [21]): 70
- Plant response rating, Barnyardgrass [2, 20]: 90
- Plant response rating, Barnyardgrass [2, 21]: 90
- Plant response rating, Foxtail, Giant [3, 20]: 90
- Plant response rating, Foxtail, Giant [3, 21]: 100
- Plant response rating, Pigweed [4, 20]: 60
- Plant response rating, Pigweed [4, 21]: 70
- Plant response rating, Ragweed [5, 20]: 60
- Plant response rating, Ragweed [5, 21]: 70
- Plant response rating, Ryegrass, Italian [6, 20]: 60
- Plant response rating, Ryegrass, Italian [6, 21]: 90
- Plant response rating, Galium [7, 22]: 40
- Plant response rating, Galium [7, 23]: 50
- Plant response rating, Kochia (Kochia (Kochia scoparia) [8]; [22]): 60
- Plant response rating, Kochia (Kochia (Kochia scoparia) [8]; [23]): 70
- Plant response rating, Barnyardgrass [9, 22]: 90
- Plant response rating, Barnyardgrass [9, 23]: 90
- Plant response rating, Blackgrass [10, 22]: 70
- Plant response rating, Blackgrass [10, 23]: 80
- Plant response rating, Corn (corn (Zea mays); [22]): 70
- Plant response rating, Corn (corn (Zea mays); [23]): 80
- Plant response rating, Foxtail, Giant [11, 22]: 90
- Plant response rating, Foxtail, Giant [11, 23]: 90
- Plant response rating, Pigweed [12, 22]: 20
- Plant response rating, Pigweed [12, 23]: 20
- Plant response rating, Ragweed [13, 22]: 0
- Plant response rating, Ragweed [13, 23]: 40
- Plant response rating, Ryegrass, Italian [14, 22]: 60
- Plant response rating, Ryegrass, Italian [14, 23]: 70
- Plant response rating, Wheat [15, 22]: 40
- Plant response rating, Wheat [15, 23]: 70
- Plant response rating, Barnyardgrass [16]: 80
- Plant response rating, Ducksalad [17]: 98
- Plant response rating, Rice (rice (Oryra sativa)): 25
- Plant response rating, Sedge, Umbrella [18]: 0
- Plant response rating (scale of 0 to 100), Nutsedge, Yellow ([19]; 31 g ai/ha): 0
- Plant response rating, Nutsedge, Yellow ([19]; 62 g ai/ha): 0
- Plant response rating, Nutsedge, Yellow ([19]; 125 g ai/ha): 0
- Plant response rating, Nutsedge, Yellow ([19]; 250 g ai/ha): 35

Compound: CN1CC(c2ccc(C(C)(F)F)cc2)C(C(=O)Nc2cccc(F)c2F)C1=O (stereo not drawn) [Compound 690]
- Plant response rating, Kochia (Kochia (Kochia scoparia) [1]; [20]): 80
- Plant response rating, Kochia (Kochia (Kochia scoparia) [1]; [21]): 90
- Plant response rating, Barnyardgrass [2, 20]: 90
- Plant response rating, Barnyardgrass [2, 21]: 90
- Plant response rating, Foxtail, Giant [3, 20]: 90
- Plant response rating, Foxtail, Giant [3, 21]: 90
- Plant response rating, Pigweed [4, 24]: 80
- Plant response rating, Pigweed [4, 21]: 90
- Plant response rating, Ragweed [5, 24]: 70
- Plant response rating, Ragweed [5, 21]: 80
- Plant response rating, Ryegrass, Italian [6, 24]: 60
- Plant response rating, Ryegrass, Italian [6, 21]: 70
- Plant response rating, Galium [7, 25]: 70
- Plant response rating, Galium [7, 23]: 70
- Plant response rating, Kochia (Kochia (Kochia scoparia) [8]; [25]): 50
- Plant response rating, Kochia (Kochia (Kochia scoparia) [8]; [23]): 70
- Plant response rating, Barnyardgrass [9, 22]: 80
- Plant response rating, Barnyardgrass [9, 23]: 80
- Plant response rating, Blackgrass [10, 22]: 60
- Plant response rating, Blackgrass [10, 23]: 70
- Plant response rating, Corn (corn (Zea mays); [25]): 70
- Plant response rating, Corn (corn (Zea mays); [23]): 80
- Plant response rating, Foxtail, Giant [11, 25]: 80
- Plant response rating, Foxtail, Giant [11, 23]: 80
- Plant response rating, Pigweed [12, 25]: 60
- Plant response rating, Pigweed [12, 23]: 70
- Plant response rating, Ragweed [13, 25]: 60
- Plant response rating, Ragweed [13, 23]: 70
- Plant response rating, Ryegrass, Italian [14, 25]: 50
- Plant response rating, Ryegrass, Italian [14, 23]: 60
- Plant response rating, Wheat [15, 25]: 50
- Plant response rating, Wheat [15, 23]: 60
- Plant response rating, Barnyardgrass [16]: 50
- Plant response rating, Ducksalad [17]: 75
- Plant response rating, Rice (rice (Oryra sativa)): 0
- Sedge, Umbrella plant response rating ([18]; scale of 0 to 100 where 0 is no effect and 100 is complete control): 0
- Plant response rating (scale of 0 to 100), Nutsedge, Yellow ([19]; 8 g ai/ha): 0
- Plant response rating (scale of 0 to 100), Nutsedge, Yellow ([19]; 16 g ai/ha): 0
- Plant response rating (scale of 0 to 100), Nutsedge, Yellow ([19]; 31 g ai/ha): 0
- Plant response rating, Nutsedge, Yellow ([19]; 62 g ai/ha): 50
